According to ChEMBL document CHEMBL1125430, “Analogues of the dioxolanes dexoxadrol and etoxadrol as potential phencyclidine-like agents. Synthesis and structure-activity relationships” (J Med Chem, 1992):

Species: Rattus norvegicus
Assay: Displacement of [3H]TCP from PCP receptor in tissue preparation of whole rat brain minus cerebellum.
Assay type: functional, organism-based
In the case of `CC[C@]1(c2ccsc2)OC[C@H]([C@@H]2CCCCN2)O1`, the Ki is reported as 124 nM.
`CCN[C@@H](C)[C@H]1COC(c2ccccc2)(c2ccccc2)O1` showed a Ki of 9000 nM.
`CC[C@]1(c2ccccc2F)OC[C@H]([C@@H]2CCCCN2)O1` showed a Ki of 36 nM.
In the case of `C[C@H](N)[C@H]1COC(c2ccccc2)(c2ccccc2)O1`, the Ki is reported as 607 nM.
Compound `C1=Cc2ccccc2C2(OC[C@H]([C@@H]3CCCCN3)O2)c2ccccc21` has a Ki of 325 nM.
Compound `CCCCCCCCC[C@]1(c2ccccc2)OC[C@H]([C@@H]2CCCCN2)O1` has a Ki of 43000 nM.
For `CCC[C@H](N)[C@H]1COC(c2ccccc2)(c2ccccc2)O1`, the Ki was 3450 nM.
For `CCC1(CC)OC[C@H]([C@@H]2CCCCN2)O1`, the Ki was 87000 nM.
Work on `CC(C)[C@]1(c2ccccc2)OC[C@H]([C@@H]2CCCCN2)O1` yielded a Ki of 45 nM.
`NC[C@H]1COC(c2ccccc2)(c2ccccc2)O1` was tested, and the Ki was 1400 nM.
With `CC[C@]1(c2cccc(N)c2)OC[C@H]([C@@H]2CCCCN2)O1` the Ki was 1230 nM.
In the case of `CCC[C@H](NC)[C@H]1COC(c2ccccc2)(c2ccccc2)O1`, the Ki is reported as 7000 nM.
With `c1ccc(C2(c3ccccc3)CCC(C3CCCCN3)C2)cc1` (single isomer, unassigned; 40a) the Ki was 52000 nM.
`CC[C@]1(c2ccccc2)OC[C@H]([C@@H]2CCCCN2)O1` [ETOXADROL] was tested, and the Ki was 107 nM.
For `CC[C@]1(c2cccc(Cl)c2)OC[C@H]([C@@H]2CCCCN2)O1`, the Ki was 59 nM.
Compound `C[C@]1(c2ccccc2)OC[C@H]([C@@H]2CCCCN2)O1` has a Ki of 847 nM.
Compound `CN[C@@H](C)[C@H]1COC(c2ccccc2)(c2ccccc2)O1` has a Ki of 703 nM.
With `C=CCN1CCCC[C@H]1[C@H]1COC(c2ccccc2)(c2ccccc2)O1` the Ki was 15200 nM.
With `CC[C@]1(c2cccs2)OC[C@H]([C@@H]2CCCCN2)O1` the Ki was 205 nM.
With `CCN1CCCC[C@H]1[C@H]1COC(c2ccccc2)(c2ccccc2)O1` the Ki was 6900 nM.
In the case of `CCNC[C@H]1COC(c2ccccc2)(c2ccccc2)O1`, the Ki is reported as 8400 nM.
Work on `CC[C@]1(c2cccc([N+](=O)[O-])c2)OC[C@H]([C@@H]2CCCCN2)O1` yielded a Ki of 1320 nM.
Work on `CC[C@]1(c2ccc(O)cc2)OC[C@H]([C@@H]2CCCCN2)O1` yielded a Ki of 19900 nM.
`CC[C@]1(c2ccccc2Cl)OC[C@H]([C@@H]2CCCCN2)O1` was tested, and the Ki was 14.3 nM.
For `CCCCCCN1CCCC[C@H]1[C@H]1COC(c2ccccc2)(c2ccccc2)O1`, the Ki was 21200 nM.
Work on `CC[C@]1(c2cccc(N=C=S)c2)OC[C@H]([C@@H]2CCCCN2)O1` yielded a Ki of 590 nM.
`CNC[C@H]1COC(c2ccccc2)(c2ccccc2)O1` was tested, and the Ki was 7300 nM.
For `CC[C@]1(c2cccc(O)c2)OC[C@H]([C@@H]2CCCCN2)O1`, the Ki was 489 nM.
`CC[C@]1(c2ccc(Cl)cc2)OC[C@H]([C@@H]2CCCCN2)O1` showed a Ki of 2800 nM.
`CC[C@]1(c2ccccc2O)OC[C@H]([C@@H]2CCCCN2)O1` showed a Ki of 293 nM.
`c1ccc(C2(c3ccccc3)OC[C@H]([C@@H]3CCCN3)O2)cc1` gave a Ki greater than 10000 nM.
Work on `CCCC[C@]1(c2ccccc2)OC[C@H]([C@@H]2CCCCN2)O1` yielded a Ki of 200 nM.
`c1ccc(CN2CCCC[C@H]2[C@H]2COC(c3ccccc3)(c3ccccc3)O2)cc1` was tested, and the Ki was 10100 nM.
In the case of `c1ccc(C2(N3CCCCC3)CCCCC2)cc1` [PHENCYCLIDINE], the Ki is reported as 80 nM.
With `c1ccc2c(c1)-c1ccccc1C21OC[C@H]([C@@H]2CCCCN2)O1` the Ki was 15500 nM.
For `c1ccc([C@H]2OC[C@H]([C@@H]3CCCCN3)O2)cc1`, the Ki was 25000 nM.
For `c1ccc(C2(c3ccccc3)CCC(C3CCCCN3)C2)cc1` (single isomer, unassigned; 40b), the Ki was 8300 nM.
`c1ccc(C2(c3ccccc3)OCC(C3CCCCN3)CO2)cc1` (stereo not drawn) was tested, and the Ki was greater than 100000 nM.
Compound `CCCN1CCCC[C@H]1[C@H]1COC(c2ccccc2)(c2ccccc2)O1` has a Ki of 6800 nM.
With `CC[C@]1(c2ccc(F)cc2)OC[C@H]([C@@H]2CCCCN2)O1` the Ki was 649 nM.
`CCC[C@]1(c2ccccc2)OC[C@H]([C@@H]2CCCCN2)O1` gave a Ki of 69 nM.
Work on `c1ccc(C2(c3ccccc3)OC[C@@H]([C@@H]3CCCN3)O2)cc1` yielded a Ki of 3300 nM.
With `CN1CCCC[C@H]1[C@H]1COC(c2ccccc2)(c2ccccc2)O1` the Ki was 4400 nM.
